Target: T1, USP7 (Homo sapiens, UniProt Q93009)
T1 construct: USP7, construct USP7 (208-1102) 6*His, Viva Biotech; 6xHis (C); purchased Viva Biotech
Assay: USP7 Assay A (Ubitquin-Rhodamine 110 Assay)
Format: biochemical
Conditions: USP7 activity in USP7 assay A and B (table does not say which assay per compound); read-out: USP7_IC50
Outline: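 Enzyme and compound sat together for 30 min before Ub-Rh110 was added, in buffer of 20 mM Tris-HCl (pH 8.0), 1 mM GSH, 0.03% BGG and 0.01% Triton X-100.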

T1 sequence (Q93009 208-1102): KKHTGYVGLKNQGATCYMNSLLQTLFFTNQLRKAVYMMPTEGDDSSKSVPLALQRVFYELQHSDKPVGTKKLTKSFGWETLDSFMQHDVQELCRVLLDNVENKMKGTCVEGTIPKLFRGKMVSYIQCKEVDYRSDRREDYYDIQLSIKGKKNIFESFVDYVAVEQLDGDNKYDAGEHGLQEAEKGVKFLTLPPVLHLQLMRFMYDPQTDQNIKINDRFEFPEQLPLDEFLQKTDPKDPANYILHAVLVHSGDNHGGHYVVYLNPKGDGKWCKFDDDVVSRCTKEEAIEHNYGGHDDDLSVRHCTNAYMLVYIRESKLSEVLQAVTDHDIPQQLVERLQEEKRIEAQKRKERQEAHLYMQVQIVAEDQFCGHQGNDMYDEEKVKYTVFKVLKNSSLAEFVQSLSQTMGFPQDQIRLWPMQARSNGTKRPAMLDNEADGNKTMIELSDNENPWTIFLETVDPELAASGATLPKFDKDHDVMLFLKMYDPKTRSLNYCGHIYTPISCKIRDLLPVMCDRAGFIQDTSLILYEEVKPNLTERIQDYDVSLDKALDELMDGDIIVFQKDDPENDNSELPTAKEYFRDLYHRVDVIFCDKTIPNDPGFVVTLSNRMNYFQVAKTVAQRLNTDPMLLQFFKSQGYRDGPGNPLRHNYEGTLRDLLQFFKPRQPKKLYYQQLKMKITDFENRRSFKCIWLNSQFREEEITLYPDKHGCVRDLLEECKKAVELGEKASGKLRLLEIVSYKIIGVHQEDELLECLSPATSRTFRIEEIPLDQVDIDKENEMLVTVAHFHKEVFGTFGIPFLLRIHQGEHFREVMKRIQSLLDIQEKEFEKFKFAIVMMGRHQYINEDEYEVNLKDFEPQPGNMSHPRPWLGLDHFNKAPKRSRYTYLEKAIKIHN

`O=C(C1CC(Nc2ccc(F)cn2)C1)N1CCC(O)(Cn2cnc3c(cnn3-c3ccc(F)cc3)c2=O)CC1` (stereo not drawn) [Compound I-1032] and `COc1ccc(OC2CCC(C(=O)N3CCC(O)(Cn4cnc5c(cnn5-c5ccc(F)cc5)c4=O)CC3)CC2)nc1` (stereo not drawn) [Compound I-1019] fall in the same range of IC50: 0.2 to 1 µM for the first, 0.2 to 1 µM for the second.

`O=C(C1CCC(Oc2ccccn2)CC1)N1CCC(O)(Cn2cnc3c(cnn3-c3ccc(F)cc3)c2=O)CC1` (stereo not drawn) [Compound I-546] and `Cn1cc(OC2CCC(C(=O)N3CCC(O)(Cn4cnc5c(cnn5-c5ccc(F)cc5)c4=O)CC3)CC2)cn1` (stereo not drawn) [Compound I-758] fall in the same range of IC50: 0.2 to 1 µM for the first, 0.2 to 1 µM for the second.

Compared with `O=C(C[C@@H](C(F)F)n1ccc(F)n1)N1CCC(O)(Cn2cnc3c(cnn3-c3cccc(N4CC5CC5C4)c3)c2=O)CC1` (stereo partly drawn) [Compound I-790], `O=C(c1ccc(N2CC3CC2CN3)cc1)N1CCC(O)(Cn2cnc3c(cnn3-c3ccc(F)cc3)c2=O)CC1` (stereo not drawn) [Compound I-1005] is higher in IC50: under 0.2 µM for the first, 1 to 10 µM for the second. The first is the more potent here.

Compared with `CC1(C(=O)N2CCC(O)(Cn3cnc4c(cnn4-c4ccc(OCC5CC(F)(F)C5)cc4)c3=O)CC2)CC1` [Compound I-1133], `CC1(C(=O)N2CCC(O)(Cn3cnc4c(cnn4-c4ccc(N5CCC(F)CC5)cc4)c3=O)CC2)CC1` [Compound I-1445] is higher in IC50: under 0.2 µM for the first, 0.2 to 1 µM for the second. The first is the more potent here.

First: CC1(C(=O)N2CCC(O)(Cn3cnc4c(cnn4-c4ccc(N5CCC(C6COC6)CC5)cc4)c3=O)CC2)CC1 [Compound I-1642]
Second: O=C(c1ccc(-n2ncc3c2CNC3)cc1)N1CCC(O)(Cn2cnc3c(cnn3-c3ccc(F)cc3)c2=O)CC1 [Compound I-611]
The IC50 of the first is lower: 0.2 to 1 µM for the first, 1 to 10 µM for the second. The first is the more potent here.

Same assay, conditions: USP7 assay A and B (table does not say which assay per compound); read-out: USP7_IC50

First: O=C(c1ccc(OC(F)F)cc1)N1CCC(O)(Cn2cnc3c(cnn3-c3ccccc3)c2=O)CC1 [Compound I-274]
Second: NC(=O)c1ccc(C(=O)N2CCC(O)(Cn3cnc4c(cnn4-c4ccccc4)c3=O)CC2)cc1 [Compound I-179]
The IC50 of the first is higher: 1 to 10 µM for the first, 0.2 to 1 µM for the second.

First: Cc1ccc(-n2ncc3c(=O)n(CC4(O)CCN(C(=O)c5ccc(Oc6ccccn6)cc5)CC4)cnc32)cc1 [Compound I-1510]
Second: O=C(c1ccc(Oc2ccccn2)cc1)N1CCC(O)(Cn2cnc3c(cnn3-c3ccc(F)cc3)c2=O)CC1 [Compound I-538]
The IC50 of the first is lower: 0.2 to 1 µM for the first, 1 to 10 µM for the second.

`O=C(C1CC1)N1CCC(O)(Cn2cnc3c(cnn3-c3cccc(Nc4ccncc4)c3)c2=O)CC1` [Compound I-1232] and `CNC(=O)Nc1ccc(-n2ncc3c(=O)n(CC4(O)CCN(C(=O)C5CC5)CC4)cnc32)cc1` [Compound I-506] fall in the same range of IC50: 1 to 10 µM for the first, 1 to 10 µM for the second.

`CN(C)CCOc1ccc(-c2ccc(-n3ncc4c(=O)n(CC5(O)CCN(C(=O)C6CC6)CC5)cnc43)cc2)cc1` [Compound I-369] and `O=C(C1CC1)N1CCC(O)(Cn2cnc3c(cnn3-c3ccc(-c4cccc(N5CCCC5)c4)cc3)c2=O)CC1` [Compound I-399] fall in the same range of IC50: 1 to 10 µM for the first, 1 to 10 µM for the second.

First: O=C(c1ccccc1)N1CCC(O)(Cn2cnc3c(cnn3-c3cccc(CO)c3)c2=O)CC1 [Compound I-281]
Second: CC(C)n1ncc2c(=O)n(CC3(O)CCN(C(=O)c4ccc(Oc5ccccc5)cc4)CC3)cnc21 [Compound I-62]
The IC50 of the first is lower: 1 to 10 µM for the first, over 10 µM for the second.

First: COc1ccc(-n2ncc3c(=O)n(C(C)C4(O)CCN(C(=O)c5ccc(F)cc5)CC4)cnc32)cc1 (stereo not drawn) [Compound I-624]
Second: CN1CCC(Oc2ccc(C(=O)N3CCC(O)(Cn4cnc5c(cnn5-c5ccc(F)cc5)c4=O)CC3)cc2)CC1 [Compound I-533]
The IC50 of the first is lower: 0.2 to 1 µM for the first, 1 to 10 µM for the second.

Compared with `Cc1ccc(-n2ncc3c(=O)n(CC4(O)CCN(C(=O)C[C@@H](c5ccccc5)C(F)(F)F)CC4)cnc32)cc1` [Compound I-145], `C[C@H](CC(=O)N1CCC(O)(Cn2cnc3c(cnn3-c3ccc(F)cc3)c2=O)CC1)N1CC2CCCC2C1` (stereo partly drawn) [Compound I-525] is higher in IC50: under 0.2 µM for the first, over 10 µM for the second.

`CC(C)(C)c1ccc(-n2ncc3c(=O)n(CC4(O)CCN(C(=O)C5CC5)CC4)cnc32)cc1` [Compound I-25] and `O=C(C1CC1)N1CCC(O)(Cn2cnc3c(cnn3-c3ccc(-c4ccccc4)c(N4CCNCC4)c3)c2=O)CC1` [Compound I-698] fall in the same range of IC50: 0.2 to 1 µM for the first, 0.2 to 1 µM for the second.

Work on `CN(C)C(=O)N1CCC(O)(Cn2cnc3c(cnn3-c3ccc(NCCN4CCCCC4)cc3)c2=O)CC1` [Compound I-1543] yielded an IC50 of 0.2 to 1 µM.

Reference: US9902728B2, “Pyrrolo and pyrazolopyrimidines as ubiquitin-specific protease 7 inhibitors” (Forma Therapeutics, Inc., priority 2014, dated 2018)
